{"source": "patent US11970435B2", "about": "“Taste-modified creatine salts, compounds, compositions and uses thereof” (Augusta University Research Institute, Inc., priority 2017, dated 2024)", "key": {"[1]": {"assay": "Stability study: decomposition of creatine salts to creatinine in water, LC-MS/MS", "assay_type": "physicochemical", "conditions": "for Creatinine, % / Salt, %: distilled water, 20° C.; for decomposition: at first, time intervals of 8 hours, water; for Formation of creatinine: deionized water, room temperature, period of 333 hours", "method": "Mobile phase was 50% water and 50% acetonitrile with 0.1% formic acid in each. Column was a 2 mm×15 cm C18 column with 3 um particles. Flow rate 0.2 mL/min.\nSamples were dissolved in distilled water and kept at 20° C. Mass spectrometry used a Waters Premier XE triple quadrupole mass spectrometer. Liquid chromatography used a Waters Acquity UPLC system.\nExperiment was double checked with two simultaneous injections of each sample in various time intervals."}, "[2]": {"conditions": "isolated product"}}, "note": "“And” between values parts separate entries of the source, which are not always exact repeats. Equal values may be shown once. Where a name gives a salt, the structure may show the parent alone."}
{"compound": "CN(CC(=O)O)C(=N)N.Cl", "note": "[Salt 4, creatine hydrochloride]", "values": [{"measurement": "Creatinine, %", "setting": "[1]; 0 Hrs, hydrochloride", "result": "1.8% and 1.7%"}, {"measurement": "Salt, %", "setting": "[1]; 0 Hrs, hydrochloride", "result": "98.2% and 98.3%"}, {"measurement": "Creatinine, %", "setting": "[1]; 8 Hrs", "result": 2.5, "unit": "%"}, {"measurement": "Salt, %", "setting": "[1]; 8 Hrs", "result": 97.5, "unit": "%"}, {"measurement": "Creatinine, %", "setting": "[1]; 16 Hrs", "result": 2.4, "unit": "%"}, {"measurement": "Salt, %", "setting": "[1]; 16 Hrs", "result": 97.6, "unit": "%"}, {"measurement": "Creatinine, %", "setting": "[1]; 24 Hrs", "result": 2.5, "unit": "%"}, {"measurement": "Salt, %", "setting": "[1]; 24 Hrs", "result": 97.5, "unit": "%"}, {"measurement": "Creatinine, %", "setting": "[1]; 32 Hrs, hydrochloride", "result": "2.4% and 2.5%"}, {"measurement": "Salt, %", "setting": "[1]; 32 Hrs, hydrochloride", "result": "97.6% and 97.5%"}, {"measurement": "Creatinine, %", "setting": "[1]; 40 Hrs, hydrochloride", "result": "2.4% and 2.5%"}, {"measurement": "Salt, %", "setting": "[1]; 40 Hrs, hydrochloride", "result": "97.6% and 97.5%"}, {"measurement": "Creatinine, %", "setting": "[1]; 48 Hrs", "result": 2.5, "unit": "%"}, {"measurement": "Salt, %", "setting": "[1]; 48 Hrs", "result": 97.5, "unit": "%"}, {"measurement": "Creatinine, %", "setting": "[1]; 56 Hrs, hydrochloride", "result": "2.5% and 2.4%"}, {"measurement": "Salt, %", "setting": "[1]; 56 Hrs, hydrochloride", "result": "97.5% and 97.6%"}, {"measurement": "Creatinine, %", "setting": "[1]; 64 Hrs", "result": 2.5, "unit": "%"}, {"measurement": "Salt, %", "setting": "[1]; 64 Hrs", "result": 97.5, "unit": "%"}, {"measurement": "Creatinine, %", "setting": "[1]; 72 Hrs, hydrochloride", "result": "2.5% and 2.6%"}, {"measurement": "Salt, %", "setting": "[1]; 72 Hrs, hydrochloride", "result": "97.5% and 97.4%"}, {"measurement": "Creatinine, %", "setting": "[1]; 138 Hrs, hydrochloride", "result": "3.0% and 2.8%"}, {"measurement": "Salt, %", "setting": "[1]; 138 Hrs, hydrochloride", "result": "97.0% and 97.2%"}, {"measurement": "Creatinine, %", "setting": "[1]; 166 Hrs", "result": 3.0, "unit": "%"}, {"measurement": "Salt, %", "setting": "[1]; 166 Hrs", "result": 97.0, "unit": "%"}, {"measurement": "Creatinine, %", "setting": "[1]; 190 Hrs", "result": 3.0, "unit": "%"}, {"measurement": "Salt, %", "setting": "[1]; 190 Hrs", "result": 97.0, "unit": "%"}, {"measurement": "Creatinine, %", "setting": "[1]; 214 Hrs, hydrochloride", "result": "3.1% and 3.3%"}, {"measurement": "Salt, %", "setting": "[1]; 214 Hrs, hydrochloride", "result": "96.9% and 96.7%"}, {"measurement": "Creatinine, %", "setting": "[1]; 240 Hrs, hydrochloride", "result": "3.0% and 3.3%"}, {"measurement": "Salt, %", "setting": "[1]; 240 Hrs, hydrochloride", "result": "97.0% and 96.7%"}, {"measurement": "Creatinine, %", "setting": "[1]; 287 Hrs, hydrochloride", "result": "3.2% and 3.5%"}, {"measurement": "Salt, %", "setting": "[1]; 287 Hrs, hydrochloride", "result": "96.8% and 96.5%"}, {"measurement": "Creatinine, %", "setting": "[1]; 310 Hrs, hydrochloride", "result": "3.3% and 3.6%"}, {"measurement": "Salt, %", "setting": "[1]; 310 Hrs, hydrochloride", "result": "96.7% and 96.4%"}, {"measurement": "Creatinine, %", "setting": "[1]; 333 Hrs, hydrochloride", "result": "3.6% and 3.5%"}, {"measurement": "Salt, %", "setting": "[1]; 333 Hrs, hydrochloride", "result": "96.4% and 96.5%"}, {"measurement": "decomposition", "setting": "[1]", "result": "< 2.5", "unit": "%"}, {"measurement": "Formation of creatinine", "setting": "[1]", "result": "≤ 3.6", "unit": "%"}]}
{"compound": "C[C@H](CCC(=O)NCCS(=O)(=O)O)[C@H]1CC[C@H]2[C@@H]3[C@H](O)C[C@@H]4C[C@H](O)CC[C@]4(C)[C@H]3C[C@H](O)[C@]12C", "note": "[Salt 26, Amino((2-ethoxy-2-oxoethyl)(methyl)amino)methaniminium 2-((R)-4-((3R,5S, 7R, 8R,9S,10S,12S,13R,14S,17R)-3,7,12-trihydroxy-10,13-dimethylhexadecahydro-1H-cyclopenta[a]phenanthren-17-yl)pentanamido)ethane-1-sulfonate]", "values": [{"measurement": "solubility in organic solvents and water", "setting": "[2]", "result": "readily soluble"}]}
{"compound": "Amino((carboxymethyl)(methyl)amino)methaniminium 6-methyl-4-oxo-4H-1,2,3-oxathiazin-3-ide 2,2-dioxide [Salt 21a]", "values": [{"measurement": "Creatinine, %", "setting": "[1]; 0 Hrs", "result": 0.4, "unit": "%"}, {"measurement": "Salt, %", "setting": "[1]; 0 Hrs", "result": 99.6, "unit": "%"}, {"measurement": "Creatinine, %", "setting": "[1]; 8 Hrs", "result": 0.4, "unit": "%"}, {"measurement": "Salt, %", "setting": "[1]; 8 Hrs", "result": 99.6, "unit": "%"}, {"measurement": "Creatinine, %", "setting": "[1]; 16 Hrs", "result": 0.4, "unit": "%"}, {"measurement": "Salt, %", "setting": "[1]; 16 Hrs", "result": 99.6, "unit": "%"}, {"measurement": "Creatinine, %", "setting": "[1]; 24 Hrs", "result": 0.5, "unit": "%"}, {"measurement": "Salt, %", "setting": "[1]; 24 Hrs", "result": 99.5, "unit": "%"}, {"measurement": "Creatinine, %", "setting": "[1]; 32 Hrs", "result": "0.5% and 0.4%"}, {"measurement": "Salt, %", "setting": "[1]; 32 Hrs", "result": "99.5% and 99.6%"}, {"measurement": "Creatinine, %", "setting": "[1]; 40 Hrs", "result": 0.5, "unit": "%"}, {"measurement": "Salt, %", "setting": "[1]; 40 Hrs", "result": 99.5, "unit": "%"}, {"measurement": "Creatinine, %", "setting": "[1]; 48 Hrs", "result": 0.5, "unit": "%"}, {"measurement": "Salt, %", "setting": "[1]; 48 Hrs", "result": 99.5, "unit": "%"}, {"measurement": "Creatinine, %", "setting": "[1]; 56 Hrs", "result": 0.5, "unit": "%"}, {"measurement": "Salt, %", "setting": "[1]; 56 Hrs", "result": 99.5, "unit": "%"}, {"measurement": "Creatinine, %", "setting": "[1]; 64 Hrs", "result": 0.5, "unit": "%"}, {"measurement": "Salt, %", "setting": "[1]; 64 Hrs", "result": 99.5, "unit": "%"}, {"measurement": "Creatinine, %", "setting": "[1]; 72 Hrs", "result": 0.5, "unit": "%"}, {"measurement": "Salt, %", "setting": "[1]; 72 Hrs", "result": 99.5, "unit": "%"}, {"measurement": "Creatinine, %", "setting": "[1]; 138 Hrs", "result": 0.6, "unit": "%"}, {"measurement": "Salt, %", "setting": "[1]; 138 Hrs", "result": 99.4, "unit": "%"}, {"measurement": "Creatinine, %", "setting": "[1]; 166 Hrs", "result": 0.7, "unit": "%"}, {"measurement": "Salt, %", "setting": "[1]; 166 Hrs", "result": 99.3, "unit": "%"}, {"measurement": "Creatinine, %", "setting": "[1]; 190 Hrs", "result": 0.7, "unit": "%"}, {"measurement": "Salt, %", "setting": "[1]; 190 Hrs", "result": 99.3, "unit": "%"}, {"measurement": "Creatinine, %", "setting": "[1]; 214 Hrs", "result": "0.8% and 0.7%"}, {"measurement": "Salt, %", "setting": "[1]; 214 Hrs", "result": "99.2% and 99.3%"}, {"measurement": "Creatinine, %", "setting": "[1]; 240 Hrs", "result": 0.8, "unit": "%"}, {"measurement": "Salt, %", "setting": "[1]; 240 Hrs", "result": 99.2, "unit": "%"}, {"measurement": "Creatinine, %", "setting": "[1]; 287 Hrs", "result": 0.9, "unit": "%"}, {"measurement": "Salt, %", "setting": "[1]; 287 Hrs", "result": 99.1, "unit": "%"}, {"measurement": "Creatinine, %", "setting": "[1]; 310 Hrs", "result": 0.9, "unit": "%"}, {"measurement": "Salt, %", "setting": "[1]; 310 Hrs", "result": 99.1, "unit": "%"}, {"measurement": "Creatinine, %", "setting": "[1]; 333 Hrs", "result": 1.0, "unit": "%"}, {"measurement": "Salt, %", "setting": "[1]; 333 Hrs", "result": 99.0, "unit": "%"}, {"measurement": "decomposition", "setting": "[1]", "result": "under 0.5%"}, {"measurement": "Formation of creatinine", "setting": "[1]", "result": "≤ 1", "unit": "%"}]}
